Data as given in US20030124132A1 (University of Texas, published 2003).

Legend:
[1] = test system: A20 lymphoma cells (I-A^d positive), mouse or human plasma; test: In vitro coagulation assay on A20 cells with capture bispecific antibody B21-2/10H10; assay type: cell-based; conditions: for coagulation time: cells alone 190 seconds
[2] = test system: C1300 Muγ tumors; test: Anti-tumor effects of tTF and immunoglobulin-tTF in C1300 Muγ tumors; assay type: in vivo, nu/nu mice; conditions: tTF alone or mixed with control bispecific antibodies
Description: The tumor test systems were: i) L540 human Hodgkin's disease tumors growing in SCID mice; ii) C1300 Muγ (interferon-secreting) neuroblastoma growing in nu/nu mice; iii) H460 human non-small cell lung carcinoma growing in nu/nu mice. To establish solid tumors, 1.5×10^7 tumor cells were injected subcutaneously into the right anterior flank of SCID or BALB/c nu/nu mice (Charles River Labs., Wilmingham, Mass.). When the tumors had grown to various diameters, mice were assigned to different experimental groups, each containing 4 to 9 mice.
Other mice received equivalent quantities of bispecific antibody alone. The injections were performed over ˜45 seconds into one of the tail veins, followed by 200 μl of saline. The infusions were repeated six days later. Perpendicular tumor diameters were measured at regular intervals and tumor volumes were calculated.
Mice bearing small (300 mm^3) C1300 Muγ tumors were injected intravenously with 16-20 μg tTF219. The treatment was repeated one week later. […] One week after the second treatment with tTF219, tumors were 60% of the size of tumors in mice receiving diluent alone. The greater effectiveness of the second injection probably derives from the greater thrombotic action of tTF219 on vessels in large tumors, observed above.
Mice bearing small (300 mm^3) subcutaneous C1300 Muγtumors were treated with tTF219 or with a complex of tTF219 and a bispecific antibody, OX7 Fab′/10H10 Fab′, not directed to a component of the tumor environment. The treatment was repeated 6 days later.

[3] = test system: C1300 (Muγ) tumors; test: Coaguligand (B21-2/10H10 + tTF) treatment of C1300 (Muγ) tumors; assay type: in vivo, BALB/c nu/nu mice; conditions: paraffin sections, 30 minutes to 24 hours after administration
Source text: To improve the C1300 (Muγ) tumor model, the C1300 (Muγ) cell line was subcloned into a cell line that can grow without being mixed with its parental cell, C1300, but still express the I-A^d MHC Class II antigen on the endothelial cells of the tumor. […] Vessels in other normal tissues were unstained.
Vessels contained platelet aggregates, packed red cells and fibrin. At this time, tumor-cells were viable, being indistinguishable morphologically from tumor cells in untreated mice. […]
To establish tumors, 10^6 to 1.5×10^7 tumor cells were injected subcutaneously into the right anterior flank of the mice. […] Other mice received equivalent quantities IgG, Fab′ or bispecific antibody alone. […]
Twenty-four hours after being injected with tTF or immunoglobulin-tTF conjugates, the mice were anesthetized with metophane and were exsanguinated by perfusion with heparinized saline. […] Blood vessels having open lumens containing erythrocytes and blood vessels containing thrombi were counted. […]
Other mice received equivalent quantities of bispecific antibody alone. […] Perpendicular tumor diameters were measured at regular intervals and tumor volumes were calculated.

[4] = target: T1, immobilized tTF (Homo sapiens, UniProt P13726); test: Real time binding of tTF to immobilized tTF (surface plasmon resonance); conditions: tTF alone or preincubated with endotoxin or factor VIIa
T1 construct: Recombinant soluble Tissue Factor protein (amino acids 1-219) was extracted from the periplasmic space of transformed E. coli; made in house; host or cells: E. coli (periplasmic secretion, vector pswc7)
T1 sequence (P13726 33-251): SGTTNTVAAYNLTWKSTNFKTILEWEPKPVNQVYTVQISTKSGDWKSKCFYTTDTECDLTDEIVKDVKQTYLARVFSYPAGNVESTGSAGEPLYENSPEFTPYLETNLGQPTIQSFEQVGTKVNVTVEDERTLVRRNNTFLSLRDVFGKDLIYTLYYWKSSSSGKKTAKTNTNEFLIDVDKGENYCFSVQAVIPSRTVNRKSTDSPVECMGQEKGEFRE

[5] = test system: L540 tumors; test: Anti-tumor activity of anti-VCAM-1·tTF coaguligand in L540 tumors; assay type: in vivo, SCID mice; conditions: controls
Description: The anti-tumor activity of anti-VCAM-1-tTF coaguligand was determined in SCID mice bearing 0.3-0.4 cm^3 L540 tumors. The drug was administered i.v. 3 times at intervals of 4 days.

[6] = test system: thrombin-antithrombin-complexes (TAT); test: Plasma thrombin-antithrombin-complexes (Enzygnost TAT micro-assay) three days after treatment; assay type: in vivo; conditions: tTF alone; tumor bearing mice, three days after i.v. treatment
Description: Mice were closely observed after treatment for clinical signs of toxicity and clinical status was documented at defined time points (5 minutes, 10 minutes, 15 minutes, 30 minutes. 1 hour, 2 hours, 24 hours, 48 hours, 72 hours). Blood samples were taken from the tail vein at 1 hour, 2 hours and 24 hours to measure TNFα blood levels. Three days after treatment, the mice were anesthetized, blood samples were taken from the vena cava for coagulation tests, and an autopsy was performed to document any changes in gross pathology. Tumors, lymph node metastases and the major normal organs (heart, lung, brain, liver, kidney, colon, spleen, pancreas) were harvested and prepared for histological analysis.
At the time of autopsy, citrated blood was sampled from the vena cava and thrombocyte-free plasma was prepared by centrifugation. […] Thrombin-Antithrombin-complexes were detected with the Enzygnost® TAT micro-assay (Dade-Behring, Marburg, Germany) according to the manufacturer's instructions. ATIII levels were determined using the Coamatic® antithrombin-assay (Haemocbrom, Essen, Germany) following the manufacturer's instructions. Changes in the blood levels of thrombin and plasmin were detected by mixing citrated plasma with the respective chromogenic substrates S2238 and S2403 (Haemochrom, Essen, Germany) and measuring the increase of the absorption at 405 nm by an ELISA reader.

tTF: extracellular domain of the mature Tissue Factor protein (amino acid 1-219), recombinant; depyrogenated in Example X
coagulation time ([1]; 20,000 molecules of tTF per cell): 140 s
coagulation time ([1]; 300,000 molecules of tTF per cell): 40 s
concentration at which plasma coagulated in 50 seconds ([1]; bound via B21-2/10H10 to A20 cells, separate studies per block): 3 nM
effect on coagulation time ([1]; cells incubated with tTF alone (not bound)): no effect on coagulation time
time to visible fibrin strands after addition of mouse plasma ([1]; tTF bound to A20 cells by B21-2/10H10, untreated cells 164 seconds): 36 s
tumor growth versus antibodies or saline alone [2]: grew significantly more slowly
thrombi or abnormalities in normal organs [3]: neither thrombi, nor histological or morphological abnormalities were visible
binding to immobilized tTF [4]: did not bind to or homodimerize with immobilized tTF
effect on tumor growth [5]: did not affect tumor growth
TAT [6]: 25.4 ng/mL
